The test system of one assay is Serratia marcescens. Briefly: Additional antimicrobial test (MIC). Format: cell-based. The settings on record: Gram −, NB, 22 ° C.
The test system of assay [1] is Erwinia carotovora atroseptica. The experiment in a line: Additional antimicrobial test (MIC). In kind it is cell-based. The settings on record: Gram −, NB/BHI, 28/37 ° C.

Each structure is given as a SMILES string. In brackets after ≈: the same amount, converted by molar mass. Non-standard residues stand in square brackets, D forms with d. Residues, ends and D or L forms follow the SMILES beside them. βAla = NCCC(=O)O

Usually MIC stands for the lowest concentration found to suppress growth. A higher MIC goes with weaker potency. As for `CC[C@H](C)[C@H](NC(=O)[C@@H]1CCCN1C(=O)[C@H](CCCNC(=N)N)NC(=O)[C@@H]1CCCN1C(=O)[C@H](Cc1c[nH]cn1)NC(=O)[C@H](CO)NC(=O)[C@@H](NC(=O)[C@@H]1CCCN1C(=O)[C@H](CCCNC(=N)N)NC(=O)[C@@H]1CCCN1C(=O)[C@@H](NC(=O)[C@H](Cc1ccc(O)cc1)NC(=O)[C@@H]1CCCN1C(=O)[C@H](CCCNC(=N)N)NC(=O)[C@@H]1CCCN1C(=O)[C@H](CCCCN)NC(=O)CCN)[C@@H](C)O)[C@@H](C)O)C(=O)N[C@@H](CCCNC(=N)N)C(=O)N[C@H](C(=O)O)C(C)C` [Peptide 14, βAlaKPRP YTPRP TSHPR PIRV] (H-[βAla]KPRPYTPRPTSHPRPIRV-OH; N-terminus assumed), the MIC result against Serratia marcescens was “NI at ≦100 μM”; in assay [1], “NI at ≦100 μM”; with Enterobacter aerogenes it was 100 µM (≈ 223 µg/mL); against Erwinia herbicola it was 6.75 µM (≈ 15 µg/mL); in the assay with Erwinia chrysanthemi, 100 µM (≈ 223 µg/mL).
For the compound `CC[C@H](C)[C@H](NC(=O)[C@@H]1CCCN1C(=O)[C@H](CCCNC(=N)N)NC(=O)[C@@H]1CCCN1C(=O)[C@H](Cc1c[nH]cn1)NC(=O)[C@H](CO)NC(=O)[C@@H](NC(=O)[C@@H]1CCCN1C(=O)[C@H](CCCNC(=N)N)NC(=O)[C@@H]1CCCN1C(=O)[C@@H](NC(=O)[C@H](Cc1ccc(O)cc1)NC(=O)[C@@H]1CCCN1C(=O)[C@H](CCCNC(=N)N)NC(=O)[C@@H]1CCCN1C(=O)[C@H](CCCCN)NC(=O)CN)[C@@H](C)O)[C@@H](C)O)C(=O)N[C@@H](CCCNC(=N)N)C(=O)N[C@H](C(=O)O)C(C)C` [Peptide 4, GKPRP YTPRP TSHPR PIRV] (H-GKPRPYTPRPTSHPRPIRV-OH; N-terminus assumed), the MIC result against Serratia marcescens is “NI at ≦100 μM”; in assay [1] it was “NI at ≦100 μM”; in the assay with Enterobacter aerogenes, 100 µM (≈ 221 µg/mL); with Erwinia herbicola it was 6.75 µM (≈ 14.9 µg/mL); against Erwinia chrysanthemi it was 50 µM (≈ 111 µg/mL).

The values above are taken from patent US20090312521A1 (priority 2004, published 2009).
